Data taken from patent US7605166B2, “Methods and compositions for treating rheumatoid arthritis” (Elan Pharmaceuticals Inc., priority 2003, dated 2009).

How the values were obtained:
[1] = system: rat CIA model; assay: Rat CIA model: paw swelling, erythema, histology; type: in vivo; conditions: rat CIA, 30, 10, 3 mg/kg b.i.d.; FIG. 6
Procedure: Anti alpha-4 antibodies, and the compounds of Formulae W and Y were tested in the rat CIA model according to the methods shown in Table 14 below.
(§1) The results in FIG. 6 show the results for compounds. There were 8 rats per group in the efficacy study. Paw swelling and erythema were measured daily and the tarsal paws collected for histological analysis at the end of the study. Plasma which was heparinized was collected at 12 hours (i.e., the trough level) and at 4 horus after the last dose for compound measurement (FIG. 6).

[2] = system: AIA Rats; assay: Adjuvant-induced arthritis (AIA) in Lewis rats: paw swelling, erythema, histology; type: in vivo, rat
[3] = Blood levels of compound in CIA rats (12 hours trough); type: in vivo, rat; conditions: at 12 hours, all concentrations tested
Procedure: as §1

[4] = system: murine collagen-induced arthritis (CIA) model; assay: Murine collagen-induced arthritis (CIA) model: clinical scores; type: in vivo, mouse; conditions: therapeutic CIA model, DBA/1LacJ mice, 100 mg/kg b.i.d.
Procedure: A murine collagen-induced arthritis (CIA) model was used to examine the pharmacological effect of anti-alpha4-integrin antibodies prophylactically, semi-therapeutically and therapeutically. Dosing of the antibody was begun on day 20 for the prophylactic animals. […] The results seen with the treatment of the CIA mice is seen in FIG. 1.
Peripheral blood leucocytes (PBLs) from mice treated with anti-alpha4, anti-α4β7 and anti-VCAM 1 antibodies were collected at 4, 12 and 24 hours after antibody dosing. Cells were stained with goat anti-rat antibodies to confirm antibodies in circulation.
The effect of the compound of Formula P was evaluated in a therapeutica CIA model. […] 100 DBA/1LacJ male mice, ages 6-8 weeks were obtained from Jackson Laboratories. The mice were immunized at Day 0 as follows: 100 μg bovine type II collagen (Chondrex) in Complete Freund's adjuvant (CFA, Sigma) were injected into the mice. At Day 21, another 100 μg bovine type II collagen (Chondrex) in Incomplete Freund's Adjuvant (IFA, Sigma) was injected into the mice. Treatment with the compound began when the animals had the disease (i.e., 100% therapeutic).
The mice are scored daily after the boost. […] Treatment continued for 3 weeks of dosing. Dosing was every other day for the antibody group and control group. […]

[5] = Plasma compound levels in AIA rats (4 and 12 hours); type: in vivo, rat; conditions: 12 hours after dosing, all concentrations tested (30, 10, 3 mg/kg)

SMILES	disease severity [1]	clinical and histological scores ([2]; AIA model, 30 mg/kg b.i.d.)	disease severity ([2]; Example F, 3 mg/kg s.c. b.i.d.)	blood levels of the compound relative to receptor saturation [3]	disease progression [4]	levels of the compound relative to receptor saturation [5]	disease ([2]; Example F, all concentrations tested (30, 10, 3 mg/kg p.o. b.i.d.), FIG. 5)
CC(C)OC(=O)[C@H](Cc1ccc(OC(=O)N2CCN(C)CC2)cc1)NC(=O)[C@H]1N(S(=O)(=O)c2cccnc2)CSC1(C)C [Formula N, N-[N-(3-pyridinesulfonyl)-L-3,3-dimethyl-4-thiaprolyl]-O-[1-methylpiperazin-4-ylcarbonyl]-L-tyrosine isopropyl ester]	neither the compound of Formula N nor Y had any impact on disease severity	ameliorate clinical and histological scores	no effect on disease severity	–	–	–	–
CCN(CC)c1ncc(N(CC)S(=O)(=O)c2ccc(Cl)cc2)c(NC(Cc2ccc(OC(=O)N3CCCC3)cc2)C(=O)O)n1 (stereo not shown) [Formula P]	–	–	–	above receptor saturation	no effect on disease progression	above receptor saturation	ameliorate disease
